The source of these data is article PMC8772772, “Enantioselective Synthesis and Pharmacological Evaluation of Aza-CGP37157–Lipoic Acid Hybrids for the Treatment of Alzheimer’s Disease” (Antioxidants, 2022).

The test system of data set [1] is SH-SY5Y neuroblastoma cells. Put plainly: Neuroprotection against okadaic acid hyperphosphorylation in SH-SY5Y cells (MTT). In kind it is cell-based, human. The following applies: for % Survival / % Protection: compound 1 μM 24 h, then compound + OA 24 h; for % Survival: basal = 100, OA alone 54.7; for % Protection: n.p = compound does not protect cells. The method, then:
(§1) Human neuroblastoma SH-SY5Y cells were plated in 96-well clear multi-well plates (6 × 10^4 cells/well). The potential neuroprotective activity of compounds against OS was evaluated using the rotenone (30 μM) (SigmaAldrich, R8875) and oligomycin A (10 μM) (SigmaAldrich, 75351) (R/O) toxic mixture. Neuroprotection activity against Tau hyperphosphorylation was evaluated by using the okadaic acid (20 nM) model. Cells were pre-incubated with each compound (1 µM) for 24 h, and then treatments were removed and cells were incubated with compounds (1 µM) in the presence the corresponding toxic for additional 24 h. At the end of the experiments, viability was determined by the MTT method. Data were normalized from cell death induced by the toxic stimuli (considered as 100% cell death). Then, the protection percentages were calculated by subtracting from the death induced by toxic stimuli, the death in the presence of the compound.
(§2) The tetrazolium ring of MTT can be cleaved by active dehydrogenases to produce a formazan precipitate. At the end of the experiments, MTT (SigmaAldrich, M2003) stock solution was added to each well to achieve a final concentration of 0.5 mg/mL. Cells were incubated for 2 h. Thereafter, culture media was removed, and DMSO was added to each well to dissolve the formazan precipitate. Finally, absorbance was measured in a microplate reader (SPECTROstar nano, BMG Labtech) at 570 nm. Absorbance obtained in basal conditions was considered as 100% cell viability.
Considering these precedents, we envisaged the evaluation of our compounds in a hyperphosphorylation toxicity model induced by okadaic acid (OA), a protein phosphatase 2A inhibitor [58, 59]. This inhibition causes an imbalance between kinase and phosphatase action, leading to hyperphosphorylation of proteins, in particular, Tau. Thus, treatment of SH-SY5Y neuroblastoma cells with OA is a well-stablished model of Tau hyperphosphorylation. Similarly, to the method used for the OS model, we selected a pre-incubation/co-incubation protocol to evaluate the potential neuroprotection capacity related to the NRF2 induction/antioxidant properties of the compounds. Cells were treated with compounds (±)-6, R-6, S-6 or 7a–d (1 µM) during 24 h; thereafter, cells were co-treated with compounds (1 µM) and OA (20 nM) for a further 24 h. Melatonin was also included as a positive control. Finally, cellular viability was evaluated by the MTT method. […] Finally, the (R,S)-7c diastereomer was not able to afford any protection, a result that might be in line with its low NRF2 induction capacity.

Data set [2] relates to SH-SY5Y neuroblastoma cells. The data set can be described thus: Neuroprotection against rotenone/oligomycin A oxidative stress in SH-SY5Y cells (MTT). In kind it is cell-based, human. The following applies: compound 1 μM 24 h, then compound + R/O (30/10 μM) 24 h; for % Survival: basal = 100, R/O alone 53.4. The method, then: as §1, §2
Thus, we selected a pre-incubation protocol to evaluate their potential neuroprotective capacity based on the NRF2-induction activity and direct antioxidant effect. Compound pre-incubation would induce the expression of antioxidant enzymes regulated by the phase II antioxidant response, thus promoting cells’ survival. The co-incubation period would also evaluate their capacity to trap free radicals produced by intoxicated mitochondria. SH-SY5Y neuroblastoma cells were treated with compounds (1 µM) during 24 h, and then cells were co-incubated with the corresponding compound at the same concentration and the R/O combination (30/10 µM) for additional 24 h. Melatonin, a well-known antioxidant natural neurohormone, was included as a positive control (1 µM). Previously reported racemic derivatives (rac-3a and (rac,R)-3b) and their precursors ((±)-6, R-6 and S-6) were included for comparative purposes at the same concentration.

The test system of a further data set is BV2 microglial cells. Put plainly: Nitrite production reduction in LPS-stimulated BV2 microglial cells (Griess). The class given is cell-based, mouse. The following applies: BV2 + LPS, 0.3–30 µM. On the procedure: BV2 microglial cells were seeded at 2 × 10^4 cells/well and treated with compounds at increasing concentrations during 24 h in complete culture media. Then, treatments were removed, and BV2 cells were co-incubated with compounds and LPS (100 ng/mL) (O127:B8, SigmaAldrich, L3129) for additional 18 h in culture media supplemented with 1% FBS. Each plate included non-treated cells as basal nitrite production. Thereafter, nitrite production was determined by using the modified Griess assay. In brief, samples (150 μL) were mixed with DAPSONE (75 μL) (SigmaAldrich, A74807) and NEDA (75 μL) (SigmaAldrich, 33461), and the mixture was incubated at room temperature for 5 min. Light absorption was measured at 550 nm in a microplate reader (SPECTROstar nano, BMG Labtech). Basal nitrite production was referred to as 100% of nitrite production, and all data were normalized to the basal condition. Concentration needed to reduce nitrite production to 50% was calculated from graphical representation of percentage of nitrite production vs. compound concentration, and data were fitted by non-linear regression and interpolated to 50%.
Chronic neuroinflammation is considered a key pathological event in the early stages of AD development. Among immune cells present at CNS, microglia is related to host defense and tissue repair. Nonetheless, chronic neuroinflammation induced by an adverse environment of protein aggregates and exacerbated OS induces a neurotoxic activity of microglia that, finally, leads to neuronal death. […] To this end, we selected the BV2 microglial cell model stimulated by lipopolysaccharide (LPS), a TLR4 agonist that activates the pro-inflammatory response. CGP37157, R- and S-LA; analogue compounds rac-3a and (rac,R)-3b; and precursor derivatives 6 were included with comparative and reference purposes. Microglial BV2 cells were treated with increasing concentrations of the corresponding compound (0.3, 3, 10 and 30 µM) for 24 h following a pre-incubation protocol. Thereafter, treatments were exchanged by a combination of the corresponding compound at desired concentration and LPS (100 ng/mL) during 18 h. At the end of this period, nitrite production was evaluated by the Griess method as an indirect measurement of iNOS enzyme expression and BV2 activation.

A short description of data set [3]: Cytotoxicity in SH-SY5Y cell line (MTT). The class given is cell-based. The following applies: human; SH-SY5Y, 10, 30 and 100 μM, 24 h, MTT; read-out: CC50. On the procedure:
SH-SY5Y human neuroblastoma cells were seeded in 96-well clear multi-well plates (6 × 10^4 cells/well). Cells were treated with increasing concentrations of compounds (10, 30 and 100 μM) for 24 h. Thereafter, viability was assessed by the MTT method. Cytotoxic concentration to observe 50% mortality (CC50) values for compounds were interpolated from dose–response curves represented as percentage of cell death vs. concentration of compound, fitted by non-linear regression and data interpolated to value 50.
as §2
In order to evaluate the potential pharmacological profile of new compounds, we first tested the potential neurotoxicity in the neuroblastoma SHSY5Y cell line. Toxicity was evaluated at increasing concentrations (10, 30 and 100 μM), and toxicity was measured as MTT reduction capability. CC50 values were calculated by non-linear regression of curves % survival vs. concentration (Supplementary Materials Figure S2). CGP37157 and previously studied racemic derivatives rac-3a and (rac,R)-3b were included as reference compounds. As previously described, LA is a non-neurotoxic compound at the concentrations texted.

Values joined by “and” are separate entries in the source; they are usually repeats but may differ in a detail not shown here. Equal entries are not always repeated.

`O=C1CN(CCOC(=O)CCCC[C@@H]2CCSS2)[C@@H](c2ccccc2Cl)c2cc(Cl)ccc2N1` [(R,R)-7d, 2-((R)-7-Chloro-5-(2-chlorophenyl)-2-oxo-1,2,3,5-tetrahydro-4H-benzo[e][1,4]diazepin-4-yl)ethyl 5-((R)-1,2-dithiolan-3-yl)pentanoate]: the “neuroprotective capacity relative to (S,R)-7b, folds less potent” value in data set [1] (OA model, 1 µM) was 2 folds. Further, in data set [1], the “% Survival” value was 63.3 ± 8.7% and the “% Protection” value stood at 21%. Also, in data set [2], the “% Protection” value is recorded as 50.7% and the “% Survival” value worked out at 77.6 ± 4.4%. Also, the “anti-inflammatory activity (nitrite production) at the evaluated concentrations” value (“anti-inflammatory activity” for short) in the data set with BV2 microglial cells is “no significant activity”. The half-maximal cytotoxic concentration (CC50) at 24 h in data set [3] is over 100 µM.

As for `O=C1CN(CCOC(=O)CCCC[C@@H]2CCSS2)[C@H](c2ccccc2Cl)c2cc(Cl)ccc2N1` [(R,S)-7c, 2-((S)-7-Chloro-5-(2-chlorophenyl)-2-oxo-1,2,3,5-tetrahydro-4H-benzo[e][1,4]diazepin-4-yl)ethyl 5-((R)-1,2-dithiolan-3-yl)pentanoate], the “% Survival” value is recorded as 50.7 ± 15.6% in data set [1] and 76.1 ± 2.9% in data set [2]. The “% Protection” value is “not protective and n.p” in data set [1]; 47.2% in data set [2]. Further, in the data set with BV2 microglial cells, the “anti-inflammatory activity” value is “no significant activity”. In addition, the CC50 at 24 h in data set [3] was over 100 µM.

Regarding `O=C1CN(CCOC(=O)CCCC[C@H]2CCSS2)[C@@H](c2ccccc2Cl)c2cc(Cl)ccc2N1` [(S,R)-7b, 2-((R)-7-Chloro-5-(2-chlorophenyl)-2-oxo-1,2,3,5-tetrahydro-4H-benzo[e][1,4]diazepin-4-yl)ethyl 5-((S)-1,2-dithiolan-3-yl)pentanoate], in data set [1], the “% Survival” value was determined as 70.6 ± 10.3%; the “% Protection” value was 41.9% and 40.2%. In addition, in data set [2], the “% Protection” value was 61.1% and the “% Survival” value amounted to 81.0 ± 4.7%. In addition, the CC50 at 24 h in data set [3] was over 100 µM.

Consider `O=C1CN(CCOC(=O)CCCC[C@H]2CCSS2)[C@H](c2ccccc2Cl)c2cc(Cl)ccc2N1` [(S,S)-7a, 2-((S)-7-Chloro-5-(2-chlorophenyl)-2-oxo-1,2,3,5-tetrahydro-4H-benzo[e][1,4]diazepin-4-yl)ethyl 5-((S)-1,2-dithiolan-3-yl)pentanoate], for which, in data set [1], the “% Survival” value amounted to 63.2 ± 7.6% and the “% Protection” value stood at 21.2%. In data set [2], the “% Protection” value was 43.4% and the “% Survival” value is on record as 74.8 ± 3.2%. In the data set with BV2 microglial cells, the “anti-inflammatory activity” value is recorded as “no significant activity”. The cytotoxic concentration (CC50) at 24 h in data set [3] is over 100 µM.
